According to ChEMBL document CHEMBL1126597, “Irreversible inactivation of macrophage and brain nitric oxide synthase by L-NG-methylarginine requires NADPH-dependent hydroxylation” (J Med Chem, 1993):

Target: T1, Nitric oxide synthase, inducible (Mus musculus) (UniProt P29477)
T1 sequence (whole entry): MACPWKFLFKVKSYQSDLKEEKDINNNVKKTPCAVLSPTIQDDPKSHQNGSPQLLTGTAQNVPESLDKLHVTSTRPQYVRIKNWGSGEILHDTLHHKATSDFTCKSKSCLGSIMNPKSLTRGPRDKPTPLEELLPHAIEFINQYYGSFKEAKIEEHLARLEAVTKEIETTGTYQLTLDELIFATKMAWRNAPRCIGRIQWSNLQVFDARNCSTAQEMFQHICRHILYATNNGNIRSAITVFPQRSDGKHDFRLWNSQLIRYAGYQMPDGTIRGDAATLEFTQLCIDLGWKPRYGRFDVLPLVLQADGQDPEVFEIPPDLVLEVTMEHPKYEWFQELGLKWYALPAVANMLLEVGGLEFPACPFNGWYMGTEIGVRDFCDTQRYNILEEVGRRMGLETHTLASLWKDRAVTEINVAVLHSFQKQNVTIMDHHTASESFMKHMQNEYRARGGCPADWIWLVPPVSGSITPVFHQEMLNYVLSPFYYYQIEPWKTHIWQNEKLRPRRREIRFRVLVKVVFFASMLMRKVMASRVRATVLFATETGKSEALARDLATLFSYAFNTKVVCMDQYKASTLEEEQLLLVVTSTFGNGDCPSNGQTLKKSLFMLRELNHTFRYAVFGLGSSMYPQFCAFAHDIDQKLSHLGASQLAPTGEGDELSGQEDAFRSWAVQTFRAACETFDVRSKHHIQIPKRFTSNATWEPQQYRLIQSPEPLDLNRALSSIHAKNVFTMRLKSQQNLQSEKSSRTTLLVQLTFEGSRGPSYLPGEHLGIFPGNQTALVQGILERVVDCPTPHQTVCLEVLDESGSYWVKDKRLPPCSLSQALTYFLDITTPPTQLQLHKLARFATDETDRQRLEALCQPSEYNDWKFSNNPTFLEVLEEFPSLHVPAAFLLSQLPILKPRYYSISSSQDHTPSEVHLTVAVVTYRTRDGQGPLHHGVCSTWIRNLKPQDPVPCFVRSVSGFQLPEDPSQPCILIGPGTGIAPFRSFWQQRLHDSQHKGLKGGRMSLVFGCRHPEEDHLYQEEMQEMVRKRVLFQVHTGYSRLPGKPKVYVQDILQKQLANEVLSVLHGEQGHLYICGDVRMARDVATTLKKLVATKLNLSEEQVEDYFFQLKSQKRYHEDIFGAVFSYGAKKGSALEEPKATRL
Assay: Inhibitory against murine macrophage nitric oxide synthase (mNOS) at 10 uM

Row | SMILES | kinact [min⁻¹]
1 | CNC(=N)NCCC[C@H](N)C(=O)O | 0.08
2 | CN(O)C(=N)NCCCC(N)C(=O)O (configuration not stated) | 0.1
